Measured values as given in the supplement of paper PMC10307832.

Experiments:
Assay in all cases: relative viability (nuclei count vs DMSO), 5 days (fraction); higher = more cells survive
COR-L 105 = test system: COR-L 105
Method in brief: (§1)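 After 5 days of treatment, lung cancer cells in 1536-well plates were fixed and stained in a single step (final 0.05% Triton X-100, 1% formaldehyde, 1 ug/ml Hoechst) and their nuclei counted on 4× images. Treatment had been applied by pin tool the day after seeding as one drug alone or as a fixed anchor-drug dose with five library-drug doses (not always all listed) in √10 steps. Relative viability is the nuclei count of treated wells divided by that of vehicle wells, and values are medians of duplicate plates.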

COR-L23 = test system: COR-L23
Method in brief: as §1

HARA = test system: HARA
Method in brief: as §1

HCC-15 = test system: HCC-15
Method in brief: as §1

HOP-62 = test system: HOP-62
Method in brief: as §1

NCI-H1355 = test system: NCI-H1355
Method in brief: as §1

NCI-H1734 = test system: NCI-H1734
Method in brief: as §1

NCI-H1755 = test system: NCI-H1755
Method in brief: as §1

NCI-H1792 = test system: NCI-H1792
Method in brief: as §1

NCI-H1993 = test system: NCI-H1993
Method in brief: as §1

NCI-H2009 = test system: NCI-H2009
Method in brief: as §1

NCI-H2170 = test system: NCI-H2170
Method in brief: as §1

NCI-H2228 = test system: NCI-H2228
Method in brief: as §1

NCI-H2347 = test system: NCI-H2347
Method in brief: as §1

NCI-H358 = test system: NCI-H358
Method in brief: as §1

NCI-H647 = test system: NCI-H647
Method in brief: as §1

NCI-H838 = test system: NCI-H838
Method in brief: as §1

SK-MES-1 = test system: SK-MES-1
Method in brief: as §1

UMC-11 = test system: UMC-11
Method in brief: as §1

Work on `O=c1cc(N2CCOCC2)oc2c(-c3cccc4c3sc3ccccc34)cccc12` + C[C@@H](Oc1cc(-c2cnn(C3CCNCC3)c2)cnc1N)c1c(Cl)ccc(F)c1Cl [Crizotinib] (partner 1 µM) yielded a relative viability (COR-L 105; first compound 0.01 µM) of 0.655, a relative viability (COR-L 105; first compound 0.03162 µM) of 0.649 and a relative viability (COR-L 105; first compound 0.1 µM) of 0.856. It also gave a relative viability (COR-L 105; first compound 0.3162 µM) of 0.724, a relative viability (COR-L 105; first compound 1 µM) of 0.589 and a relative viability (COR-L23; first compound 0.01 µM) of 0.62. It also gave a relative viability (COR-L23; first compound 0.03162 µM) of 0.732, a relative viability (COR-L23; first compound 0.1 µM) of 0.819 and a relative viability (COR-L23; first compound 0.3162 µM) of 0.638. It also gave a relative viability (COR-L23; first compound 1 µM) of 0.597, a relative viability (HARA; first compound 0.01 µM) of 0.996 and a relative viability (HARA; first compound 0.03162 µM) of 1.05. The relative viability (HARA; first compound 0.1 µM) was 1.26, the relative viability (HARA; first compound 0.3162 µM) was 1.13 and the relative viability (HARA; first compound 1 µM) was 0.988. The relative viability (HCC-15; first compound 0.01 µM) was 0.807, the relative viability (HCC-15; first compound 0.03162 µM) was 0.846 and the relative viability (HCC-15; first compound 0.1 µM) was 0.879. The relative viability (HCC-15; first compound 0.3162 µM) was 0.773, the relative viability (HCC-15; first compound 1 µM) was 0.764 and the relative viability (HOP-62; first compound 0.01 µM) was 1.06. The relative viability (HOP-62; first compound 0.03162 µM) was 0.931, the relative viability (HOP-62; first compound 0.1 µM) was 0.931 and the relative viability (HOP-62; first compound 0.3162 µM) was 0.945. For the same molecule, the relative viability (HOP-62; first compound 1 µM) was 1.04, the relative viability (NCI-H1355; first compound 0.01 µM) was 1.17 and the relative viability (NCI-H1355; first compound 0.03162 µM) was 1.12. The relative viability (NCI-H1355; first compound 0.3162 µM) was 1.11, the relative viability (NCI-H1355; first compound 1 µM) was 0.941 and the relative viability (NCI-H1734; first compound 0.01 µM) was 0.766. For the same molecule, the relative viability (NCI-H1734; first compound 0.03162 µM) was 0.678, the relative viability (NCI-H1734; first compound 0.1 µM) was 0.699 and the relative viability (NCI-H1734; first compound 0.3162 µM) was 0.61. It also gave a relative viability (NCI-H1734; first compound 1 µM) of 0.642, a relative viability (NCI-H1755; first compound 0.01 µM) of 0.875 and a relative viability (NCI-H1755; first compound 0.03162 µM) of 0.812. It also gave a relative viability (NCI-H1755; first compound 0.1 µM) of 0.838, a relative viability (NCI-H1755; first compound 0.3162 µM) of 0.807 and a relative viability (NCI-H1755; first compound 1 µM) of 0.767. It also gave a relative viability (NCI-H1792; first compound 0.01 µM) of 0.967, a relative viability (NCI-H1792; first compound 0.03162 µM) of 0.923 and a relative viability (NCI-H1792; first compound 0.1 µM) of 0.741. For the same molecule, the relative viability (NCI-H1792; first compound 0.3162 µM) was 0.939, the relative viability (NCI-H1792; first compound 1 µM) was 0.95 and the relative viability (NCI-H1993; first compound 0.01 µM) was 0.858. For the same molecule, the relative viability (NCI-H1993; first compound 0.03162 µM) was 0.93, the relative viability (NCI-H1993; first compound 0.1 µM) was 0.928 and the relative viability (NCI-H1993; first compound 0.3162 µM) was 0.862. The relative viability (NCI-H1993; first compound 1 µM) was 0.943, the relative viability (NCI-H2009; first compound 0.01 µM) was 1.03 and the relative viability (NCI-H2009; first compound 0.03162 µM) was 0.921. For the same molecule, the relative viability (NCI-H2009; first compound 0.1 µM) was 1.02, the relative viability (NCI-H2009; first compound 0.3162 µM) was 0.995 and the relative viability (NCI-H2009; first compound 1 µM) was 0.935. For the same molecule, the relative viability (NCI-H2170; first compound 0.01 µM) was 1.24, the relative viability (NCI-H2170; first compound 0.03162 µM) was 1.17 and the relative viability (NCI-H2170; first compound 0.1 µM) was 1.24. It also gave a relative viability (NCI-H2170; first compound 0.3162 µM) of 1.12, a relative viability (NCI-H2170; first compound 1 µM) of 1.17 and a relative viability (NCI-H2228; first compound 0.03162 µM) of 0.479. The relative viability (NCI-H2228; first compound 0.1 µM) was 0.501, the relative viability (NCI-H2228; first compound 0.3162 µM) was 0.403 and the relative viability (NCI-H2228; first compound 1 µM) was 0.471. For the same molecule, the relative viability (NCI-H2347; first compound 0.01 µM) was 0.805, the relative viability (NCI-H2347; first compound 0.03162 µM) was 0.661 and the relative viability (NCI-H2347; first compound 0.1 µM) was 0.739. The relative viability (NCI-H2347; first compound 0.3162 µM) was 0.584, the relative viability (NCI-H2347; first compound 1 µM) was 0.76 and the relative viability (NCI-H358; first compound 0.01 µM) was 0.498. The relative viability (NCI-H358; first compound 0.03162 µM) was 0.546, the relative viability (NCI-H358; first compound 0.1 µM) was 0.794 and the relative viability (NCI-H358; first compound 0.3162 µM) was 0.658. The relative viability (NCI-H358; first compound 1 µM) was 0.535, the relative viability (NCI-H647; first compound 0.01 µM) was 1.12 and the relative viability (NCI-H647; first compound 0.03162 µM) was 1.23. For the same molecule, the relative viability (NCI-H647; first compound 0.1 µM) was 1.08, the relative viability (NCI-H647; first compound 0.3162 µM) was 0.949 and the relative viability (NCI-H647; first compound 1 µM) was 0.939. It also gave a relative viability (NCI-H838; first compound 0.01 µM) of 0.876, a relative viability (NCI-H838; first compound 0.03162 µM) of 0.77 and a relative viability (NCI-H838; first compound 0.1 µM) of 0.849. For the same molecule, the relative viability (NCI-H838; first compound 0.3162 µM) was 0.744, the relative viability (NCI-H838; first compound 1 µM) was 0.787 and the relative viability (SK-MES-1; first compound 0.01 µM) was 0.965. For the same molecule, the relative viability (SK-MES-1; first compound 0.03162 µM) was 0.991, the relative viability (SK-MES-1; first compound 0.1 µM) was 1.01 and the relative viability (SK-MES-1; first compound 0.3162 µM) was 1.01. It also gave a relative viability (SK-MES-1; first compound 1 µM) of 1.04, a relative viability (UMC-11; first compound 0.01 µM) of 0.69 and a relative viability (UMC-11; first compound 0.03162 µM) of 0.648. The relative viability (UMC-11; first compound 0.1 µM) was 0.592, the relative viability (UMC-11; first compound 0.3162 µM) was 0.631 and the relative viability (UMC-11; first compound 1 µM) was 0.565.
